Experimental data from PMC6436534 (Chemistry (Weinheim an der Bergstrasse, Germany), 2019).
Converted amounts (≈) assume the structure as drawn. Where two headings read alike, the source gives them in different places.

What was measured:
[1] = for half-life: human liver microsomes, standard 60 min incubation; for metabolites observed by LC-MS: stored human liver microsomal incubates
[2] = tested on: vitamin K epoxide reductase (VKOR); test: VKOR inhibition in FIXgla-PC/HEK293 reporter cells; conditions: relative to (R)-enantiomer of cubane analogue
[3] = clinically relevant warfarin analogue; cited from earlier work
[4] = Chemical stability on storage; type: physicochemical; conditions: stored at 8 °C for approximately two years, 1H NMR analysis
[5] = traditional octanol water partition coefficient determination
adult male C57BL6/J mice = test: Open field test; type: in vivo; conditions: OFT, compared to vehicle (water)
mouse = conditions: earlier in vivo mouse studies; cited from earlier work
[6] = tested on: melanoma (MM96L) cell line; test: Activity against melanoma cell line; type: cell-based
[7] = tested on: breast cancer (MCF7) cell line; test: Activity against breast cancer cell line; type: cell-based; conditions: for IC50: MCF7 breast cancer cell line
scabies mites = test: Scabies mite mortality; conditions: at 8 h; same concentration as benzyl benzoate

**Q.** With `CC(=O)C[C@H](C1=CC=CC=CC=C1)c1c(O)c2ccccc2oc1=O` [(R)-COT] as the molecule, how does the half-life [1] read?
**A.** Its half-life is 2.17 ± 0.333 h.

**Q.** What about the “metabolites observed by LC-MS” value [1] of the same molecule?
**A.** Its value is “significant quantities of an M+2 metabolite”.

**Q.** Which half-life [1] does the source give for `CC(=O)C[C@@H](C1=CC=CC=CC=C1)c1c(O)c2ccccc2oc1=O` [(S)-COT] here?
**A.** The half-life was 1.83 ± 0.633 h.

**Q.** And the “metabolites observed by LC-MS” value [1]?
**A.** The value was “substantial peaks exhibiting an M+16”.

**Q.** Which “VKOR inhibition, fold lower activity than the (R)-enantiomer” value [2] does the source give for `CC(=O)CC(c1c(O)c2ccccc2oc1=O)C12C3C4C5C3C1C5C42` [(S)-cubane analogue] here?
**A.** The value was “ca. 3 fold”.

**Q.** Which half-life [3] does the source give for `CC(=O)CC(c1ccc([N+](=O)[O-])cc1)c1c(O)c2ccccc2oc1=O` (stereo not shown) [acenocoumarol] here?
**A.** Its half-life is 10 h.

**Q.** For `CC1(O)CC(C2=CC=CC=CC=C2)c2c(c3ccccc3oc2=O)O1` (stereo not shown) [compound 8, COT-warfarin], which chemical stability [4] is on record?
**A.** The chemical stability was “no signs of decomposition”.

**Q.** What about the “log P” value [5] of the same molecule?
**A.** The value was 2.82.

**Q.** With `O=C(NCCN1CCOCC1)c1ccc(Cl)cc1` [compound 9, moclobemide] as the molecule, how does the “locomotor profile / total distance travelled” value (adult male C57BL6/J mice) read?
**A.** Its value is “decrease the total distance travelled by the same amount compared to the vehicle”.

**Q.** For `O=C(CCCCCCC(=O)Nc1ccccc1)NO` [compound 11, suberanilohydroxamic acid, reference compound], which in vivo activity (mouse) is on record?
**A.** The in vivo activity was “identical activity”.

**Q.** And the “log P” value [5]?
**A.** Its value is 0.99.

**Q.** Which in vivo activity (mouse) does the source give for `O=C(CCCCCCC(=O)NC12C3C4C5C3C1C5C42)NO` (stereo not shown) [compound 16] here?
**A.** Its in vivo activity is “identical activity”.

**Q.** What about the IC50 [6] of the same molecule?
**A.** Its IC50 is 0.137 ± 0.005 µg/mL (≈ 0.472 µM).

**Q.** And the “log P” value [5]?
**A.** Its value is 1.52.

**Q.** What about the IC50 [7] of the same molecule?
**A.** Its IC50 is 0.053 ± 0.004 µg/mL (≈ 0.183 µM).

**Q.** Which IC50 [6] does the source give for `O=C(CCCCCCC(=O)NC1=CC=CC=CC=C1)NO` [compound 23] here?
**A.** Its IC50 is 0.073 ± 0.008 µg/mL (≈ 0.251 µM).

**Q.** What about the “log P” value [5] of the same molecule?
**A.** Its value is 1.38.

**Q.** What about the “fold less active than SAHA” value ([7]; MCF7 and MM96L cell lines, relative to SAHA) of the same molecule?
**A.** The value was “ca. 2 fold”.

**Q.** And the “fold more active than 16” value ([7]; MCF7 and MM96L cell lines, relative to cubane derivative 16)?
**A.** The value was “ca. 2 fold”.

**Q.** What about the IC50 [7] of the same molecule?
**A.** The IC50 was 0.037 ± 0.003 µg/mL (≈ 0.127 µM).

**Q.** With `O=C(OCc1ccccc1)C1=CC=CC=CC=C1` [compound 26] as the molecule, how does the mite mortality (scabies mites) read?
**A.** The mite mortality was 75%.

**Q.** What about the “log P” value [5] of the same molecule?
**A.** Its value is 3.34.
